The nature of data set [1]: Cytotoxicity against human AC16 [Human hybrid] cells assessed as cell viability at 10 uM incubated for 72 hrs by celltiter-glo assay relative to control. Conditions: read-out: Activity. Type of data set: toxicity, cell-based.
Data set [2] relates to Ramos. The data set can be described thus: Cytotoxicity against human Ramos cells assessed as cell viability incubated for 24 hrs by celltiter-glo assay. The format is functional, cell-based. For orientation: In ATP-based viability assays light output follows the ATP content of the culture.
Data set [3] concerns the target T1, von Hippel-Lindau disease tumor suppressor/Bromodomain-containing protein 4 (Homo sapiens) (UniProt O60885+P40337). The data set can be described thus: PROTAC activity at BRD4/VHL in human Ramos cells expressing iCP assessed as induction of BRD4 degradation at 1 nM compound administered as prodrug-PROTAC incubated for 18 hrs by immunoblotting analysis. The format is cell-based. In general terms: Immunoblotting shows a protein as a band on a membrane.

The target in data set [4] is T1, von Hippel-Lindau disease tumor suppressor/Bromodomain-containing protein 4 (Homo sapiens). The data set can be described thus: PROTAC activity at BRD4/VHL in human Ramos cells expressing iCP assessed as induction of BRD4 degradation at 100 nM compound administered as prodrug-PROTAC incubated for 18 hrs in presence of ONX-0914 by immunoblotting analysis. Type of data set: cell-based.

Data set [5] in a line: Cytotoxicity against human AC16 [Human hybrid] cells expressing iCP assessed as cell viability incubated for 24 hrs by celltiter-glo assay. The format is toxicity, cell-based.
Data set [6] deals with 20S proteasome. Kind of data set: Prodrug release in tris HCL buffer at pH 7.4 assessed as human 20S immunoproteasome mediated hydrolysis by measuring Dox release at 10 uM incubated for 4 hrs in presence of 37.5 to 75 nM of PA28alpha/beta activated complex by mass spectrometry analysis. The format is ADME, protein-complex assay. The conditions noted are these: pH 7.4, 4 h.

Data set [7] concerns 20S proteasome. Kind of data set: Prodrug release in tris HCL buffer assessed as human 20S immunoproteasome-mediated hydrolysis by measuring Dox release measured upto 8 hrs by mass spectrometry analysis. Type of data set: ADME, protein-complex assay.
In data set [8] the test system is 20S proteasome. Kind of data set: Prodrug release in tris HCL buffer at pH 7.4 assessed as human 20S immunoproteasome mediated hydrolysis by measuring Dox release at 10 uM incubated for 4 hrs in presence of PA28alpha/beta activated complex by mass spectrometry analysis. The format is ADME, protein-complex assay. The conditions noted are these: pH 7.4, 4 h.
In data set [9] the test system is 20S proteasome. Kind of data set: Prodrug release in tris HCL buffer at pH 7.4 assessed as human 20S immunoproteasome mediated hydrolysis by measuring Dox release at 10 uM incubated for 90 mins in presence of PA28alpha/beta activated complex by fluorescence based analysis. The format is ADME, protein-complex assay. The conditions noted are these: pH 7.4, 1.5 h.

The nature of data set [10]: Prodrug release in tris HCL buffer assessed as human 20S proteasome core particle-mediated hydrolysis by measuring Dox release measured for 4 hrs in presence of PA28alpha/beta activated complex by mass spectrometry analysis. Type of data set: ADME.
Data set [11] is described as follows: Prodrug release in tris HCL buffer assessed as human 20S proteasome core particle-mediated hydrolysis by measuring Dox release measured for 4 hrs by mass spectrometry analysis. The format is ADME.
Data set [12] in a line: Cytotoxicity against human AC16 [Human hybrid] cells assessed as cell viability at 20 uM incubated for 72 hrs by celltiter-glo assay relative to control. The format is toxicity, cell-based. Conditions: read-out: Activity.
Data set [13] is described as follows: Stability in human serum incubated for 1 hr by mass spectrometry analysis. The format is ADME, cell-free.
The next data set deals with Raji. The data set can be described thus: Cytotoxicity against human Raji cells assessed as cell viability at 0.0001 to 100 uM incubated for 72 hrs by celltiter-glo assay. The format is functional, cell-based. Conditions: dose 0.0001-100 µM.
Another data set relates to MM.1R. Kind of data set: Cytotoxicity against human MM1.R cells assessed as cell viability at 0.0001 to 100 uM incubated for 72 hrs by celltiter-glo assay. Type of data set: functional, cell-based. Conditions: dose 0.0001-100 µM.
Data set [14] concerns Ramos. Kind of data set: Cytotoxicity against human Ramos cells assessed as cell viability incubated for 72 hrs by celltiter-glo assay. The format is functional, cell-based.
A short description of data set [15]: Cytotoxicity against human AC16 [Human hybrid] cells assessed as cell viability incubated for 72 hrs by celltiter-glo assay. Type of data set: toxicity, cell-based.

Activity calls are given as the source filed them. No cut-off for these calls is given here. Peptide text beside a SMILES is read from it. * marks the point of attachment. Doxorubicin(3'-N) = COc1cccc2c1C(=O)c1c(O)c3c(c(O)c1C2=O)C[C@@](O)(C(=O)CO)C[C@@H]3O[C@H]1C[C@H](N*)[C@H](O)[C@H](C)O1; Morpholinoacetyl = O=C(CN1CCOCC1)*

T1 sequence (P40337 whole entry, looked up, other chains not shown): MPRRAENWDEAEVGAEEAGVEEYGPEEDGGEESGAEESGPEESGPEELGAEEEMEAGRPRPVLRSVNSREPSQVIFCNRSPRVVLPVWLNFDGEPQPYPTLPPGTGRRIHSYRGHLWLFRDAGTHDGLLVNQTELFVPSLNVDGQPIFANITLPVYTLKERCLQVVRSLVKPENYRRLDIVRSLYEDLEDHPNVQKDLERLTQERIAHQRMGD

For the compound `COc1cccc2c1C(=O)c1c(O)c3c(c(O)c1C2=O)C[C@@](O)(C(=O)CO)C[C@@H]3O[C@H]1C[C@H](NC(C)=O)[C@H](O)[C@H](C)O1`, in [1], the viability at 72 h, 10 µM is over 90%.
In general, IC50 refers to the concentration that inhibits the measured activity by half. With `Cc1ncsc1-c1ccc([C@H](C)NC(=O)[C@@H]2C[C@@H](O)CN2C(=O)[C@@H](NC(=O)COCCCOCCNC(=O)C[C@@H]2N=C(c3ccc(Cl)cc3)c3c(sc(C)c3C)-n3c(C)nnc32)C(C)(C)C)cc1`, the IC50 with Ramos [2] worked out at 10 nM. For the same compound, the outcome in data set [3] was Active.
With `CSCC[C@H](NC(=O)[C@@H](NC(=O)[C@H](C)NC(=O)CN1CCOCC1)[C@@H](C)O)C(=O)N[C@@H](Cc1c[nH]c2ccccc12)C(=O)Nc1ccc(COC(=O)O[C@H]2C[C@H](C(=O)N[C@@H](C)c3ccc(-c4scnc4C)cc3)N(C(=O)[C@@H](NC(=O)COCCCOCCNC(=O)C[C@@H]3N=C(c4ccc(Cl)cc4)c4c(sc(C)c4C)-n4c(C)nnc43)C(C)(C)C)C2)cc1`, the IC50 with Ramos [2] worked out at 10 nM. In addition, the result in data set [4] was inactive. In data set [5], the Activity result is on record as “Toxic”. For the same compound, in data set [3], the result was Active.
On to `COc1cccc2c1C(=O)c1c(O)c3c(c(O)c1C2=O)C[C@@](O)(C(=O)CO)C[C@@H]3O[C@H]1C[C@H](NC(=O)[C@H](C)NC(=O)[C@H](C)NC(=O)[C@H](C)NC(=O)[C@H](C)NC(C)=O)[C@H](O)[C@H](C)O1` (Ac-AAAA-{Doxorubicin(3'-N)}), for which the Drug metabolism result in the data set with 20S proteasome [6] was “metabolite_notdetected”; in the data set on 20S proteasome [7] it was “metabolite_detected”.
Turning to `COc1cccc2c1C(=O)c1c(O)c3c(c(O)c1C2=O)C[C@@](O)(C(=O)CO)C[C@@H]3O[C@H]1C[C@H](NC(=O)[C@H](Cc2c[nH]c3ccccc23)NC(=O)[C@H](CCSC)NC(=O)[C@@H](NC(=O)[C@H](C)NC(C)=O)[C@@H](C)O)[C@H](O)[C@H](C)O1` (Ac-ATMW-{Doxorubicin(3'-N)}), the Drug metabolism result in the data set on 20S proteasome [8], with 20S proteasome [9] and with 20S proteasome [7] was “metabolite_detected” each time.
As for `COc1cccc2c1C(=O)c1c(O)c3c(c(O)c1C2=O)C[C@@](O)(C(=O)CO)C[C@@H]3O[C@H]1C[C@H](NC(=O)[C@H](Cc2ccc(O)cc2)NC(=O)[C@@H](NC(=O)[C@H](CC(C)C)NC(=O)[C@H](CC(C)C)NC(C)=O)C(C)C)[C@H](O)[C@H](C)O1` (Ac-LLVY-{Doxorubicin(3'-N)}), the Drug metabolism result with 20S proteasome [6] is “metabolite_notdetected”; in [10], “metabolite_detected”; in the data set with 20S proteasome [7], “metabolite_detected”; in data set [11], “metabolite_notdetected”.
Take `COc1cccc2c1C(=O)c1c(O)c3c(c(O)c1C2=O)C[C@@](O)(C(=O)CO)C[C@@H]3O[C@H]1C[C@H](NC(=O)[C@H](Cc2c[nH]c3ccccc23)NC(=O)[C@H](CCSC)NC(=O)[C@@H](NC(=O)[C@H](C)NC(=O)CN2CCOCC2)[C@@H](C)O)[C@H](O)[C@H](C)O1` (Morpholinoacetyl-ATMW-{Doxorubicin(3'-N)}): the viability at 72 h, 20 µM in [12] is over 80%. In addition, the Stability result in data set [13] is given as “Stable”. For the same compound, the result in the data set with Raji and in the data set with MM.1R was Active. Also, the IC50 with Ramos [14] was determined as 5500 nM.
In the case of `COc1cccc2c1C(=O)c1c(O)c3c(c(O)c1C2=O)C[C@@](O)(C(=O)CO)C[C@@H]3O[C@H]1C[C@H](N)[C@H](O)[C@H](C)O1` [DOXORUBICIN], the IC50 at 72 h in data set [15] amounted to 233 nM.

(Values after ChEMBL document CHEMBL6115038, “Immunoproteasome as a Target for Prodrugs” (J Med Chem, 2025).)
